In US9321809B2, “Macrocyclic compounds for suppressing replication of hepatitis C virus” (Ginkgo Pharma Co., Ltd., priority 2012, dated 2016):

What follows are compounds tested on HCV replicon-containing huh-7 cells (replicon 1b) (assay: HCV Replicon Assay (luciferase readout)). Details: Hepatitis C virus; HCV replicon 1b in huh-7 cells, 48 h incubation, 1% DMSO, luciferase signal; read-out: EC50 (EC 50 on replicon 1b).
Assay type: cell-based
Description: Compounds of formuala (I) are tested for the ability to inhibit viral replication of the Hepatitis C viruses by the following in vitro assays.
DMEM (Life Technologies #41965-039) was supplemented with 10% FBS, 2 mM L-glutamine (Life Technologies #25030-024), penicillin (100 units/ml)/streptomycin (100 micrograms/ml) (Life Technologies #15140-114), 1× non-essential amino acids (Life Technologies #11140-035).
Complete media was prepared by mixing FBS, DMEM media with Geneticin (G418). The compete media was preincubated at 37° C. in a CO2 incubator. Then, HCV replicon-containing huh-7 cells (V. Lohmann et. al. Science, 285, (1999)110-113) was taken out from 37° C. incubator. The residual medium was absorbed, and the cells were washed with PBS. After washing fluid was removed, 1 ml 0.25% trypsin/0.02% EDTA solution. The cells were washed by the above trypsin/EDTA solution to make sure that each cell was cleaned. After the trypsin/EDTA solution was absorbed, the mixture was incubated at 37° C. in a CO2 incubator for 3-5 minutes. Morphological changes were observed by inverted microscope, till the cells were detached from the wall of container completely.
3 ml of complete media was added to make the cells to suspend. The cells are counted with hematometer. Appropriate volumes of the complete media was added to adjust the cell density to 100,000/ml. Cells were plated with 100 μl of suspension at 10,000/well of 96 well plate. Plates were placed into 37° C. 5% CO2 incubator for 24 h.
Preparation of Drug Solution:
Drugs were diluted under aseptic conditions.
Stock solutions may be prepared before the assay, which means that the test compounds are dissolved in 100% DMSO to afford a final concentration of 2 mM. Before the 96 well culture was completed, the stock solution was diluted with culter media to 100 fold of the final concentration (100× solution).
96-well plates were taken out from 37° C. CO2 incubator and morphological changes were observed by inverted microscope. In a ventilator, 1 μl of 100× drug solution was added to wells of 96 well plate until the final concentration of DMSO in the mixture is 1%. The plates were incubated at 37° C. in a CO2 environment for 48 h. 30 μl of Stead-G1® Luciferase Assay System (bought from Promega) was added to each well of 96 well plates and each plate is shaken in a plate shaker for 5 minutes to ensure cells cleavaged completely. The fluorescence signal was quantitated in a Perkin-Elmer plate reader (Envision) and integral time was setted to be 2 second. The following data were achieved after recording and analyzing the data.

Row | SMILES | EC50 [nM]
1 | CC[C@@H]1C[C@]1(NC(=O)[C@@H]1C[C@@H]2CN1C(=O)[C@H](C(C)(C)C)NC(=O)[C@@H](NC(=O)OC(C)(C)C)COCCCc1cccc3c1CN(C3)C(=O)O2)C(=O)NS(=O)(=O)C1CC1 [Compound IIa-14, tert-butyl N-[(1R,17S,20S,23S)-20-tert-butyl-23-{[(1R,2R)-1-[(cyclopropanesulfonyl)carbamoyl]-2-ethylcyclopropyl]carbamoyl}-3,18,21-trioxo-2,15-dioxa-4,19,22-triazatetracyclo[20.2.1.1^4,7.0^6,11]hexacosa-6,8,10-trien-17-yl]carbamate] | 50 to 500
2 | CC[C@@H]1C[C@]1(NC(=O)[C@@H]1C[C@@H]2CN1C(=O)[C@H](C(C)(C)C)NC(=O)[C@@H](NC(=O)OC(C)(C)C)COC/C=C/c1cccc3c1CN(C3)C(=O)O2)C(=O)NS(=O)(=O)C1CC1 [Compound IIa-15, tert-butyl N-[(1R,12E,17S,20S,23S)-20-tert-butyl-23-{[(1R,2R)-1-[(cyclopropanesulfonyl)carbamoyl]-2-ethylcyclopropyl]carbamoyl}-3,18,21-trioxo-2,15-dioxa-4,19,22-triazatetracyclo[20.2.1.1^4,7.0^6,11]hexacosa-6,8,10,12-tetraen-17-yl]carbamate] | < 10
3 | C=C[C@@H]1C[C@]1(NC(=O)[C@@H]1C[C@@H]2CN1C(=O)[C@H](C1CCCCC1)NC(=O)[C@@H](NC(=O)OC(C)(C)C)COCCCc1cccc3c1CN(C3)C(=O)O2)C(=O)NS(=O)(=O)C1CC1 [Compound IIa-17, tert-butyl N-[(1R,17S,20S,23S)-20-cyclohexyl-23-{[(1R,2S)-1-[(cyclopropanesulfonyl)carbamoyl]-2-ethenylcyclopropyl]carbamoyl}-3,18,21-trioxo-2,15-dioxa-4,19,22-triazatetracyclo[20.2.1.1^4,7.0^6,11]hexacosa-6,8,10-trien-17-yl]carbamate] | < 10
4 | CC[C@@H]1C[C@]1(NC(=O)[C@@H]1C[C@@H]2CN1C(=O)[C@H](C1CCCCC1)NC(=O)[C@@H](NC(=O)OC(C)(C)C)COCCCc1cccc3c1CN(C3)C(=O)O2)C(=O)NS(=O)(=O)C1CC1 [Compound IIa-18, tert-butyl N-[(1R,17S,20S,23S)-20-cyclohexyl-23-{[(1R,2R)-1-[(cyclopropanesulfonyl)carbamoyl]-2-ethylcyclopropyl]carbamoyl}-3,18,21-trioxo-2,15-dioxa-4,19,22-triazatetracyclo[20.2.1.1^4,7.0^6,11]hexacosa-6,8,10-trien-17-yl]carbamate] | 10 to 50
5 | CC[C@@H]1C[C@]1(NC(=O)[C@@H]1C[C@@H]2CN1C(=O)[C@H](C1CCCCC1)NC(=O)[C@@H](NC(=O)OC(C)(C)C)COC/C=C/c1cccc3c1CN(C3)C(=O)O2)C(=O)NS(=O)(=O)C1CC1 [Compound IIa-19, tert-butyl N-[(1R,12E,17S,20S,23S)-20-cyclohexyl-23-{[(1R,2R)-1-[(cyclopropanesulfonyl)carbamoyl]-2-ethylcyclopropyl]carbamoyl}-3,18,21-trioxo-2,15-dioxa-4,19,22-triazatetracyclo[20.2.1.1^4,7.0^6,11]hexacosa-6,8,10,12-tetraen-17-yl]carbamate] | < 10
6 | C=C[C@@H]1C[C@]1(NC(=O)[C@@H]1C[C@@H]2CN1C(=O)[C@H](C(C)(C)C)NC(=O)[C@@H](NC(=O)OC(C)(C)C)CCOC/C=C/c1cccc3c1CN(C3)C(=O)O2)C(=O)NS(=O)(=O)C1CC1 [Compound IIa-20] | < 10
7 | C=C[C@@H]1C[C@]1(NC(=O)[C@@H]1C[C@@H]2CN1C(=O)[C@H](C(C)(C)C)NC(=O)[C@@H](NC(=O)OC(C)(C)C)CSC/C=C/c1cccc3c1CN(C3)C(=O)O2)C(=O)NS(=O)(=O)C1CC1 [Compound IIa-21, tert-butyl N-[(1R,12E,17R,20S,23S)-20-tert-butyl-23-{[(1R,2S)-1-[(cyclopropanesulfonyl)carbamoyl]-2-ethenylcyclopropyl]carbamoyl}-3,18,21-trioxo-2-oxa-15-thia-4,19,22-triazatetracyclo[20.2.1.1^4,7.0^6,11]hexacosa-6,8,10,12-tetraen-17-yl]carbamate] | 10 to 50
